Source: the supplement of paper PMC10307832

Key:
Test in all cases: relative viability (nuclei count vs DMSO), 5 days (fraction); higher = more cells survive
[1] = compound: C1CNCCC1C2=CC(=NN2)C3=CC=NC=C3 + Nc1ncn([C@H]2C[C@H](O)[C@@H](CO)O2)c(=O)n1 [Decitabine] (partner 2 µM)
How it was run: (§1)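 Lung cancer cell lines in 1536-well plates got either a single drug or a fixed anchor-drug dose together with five library-drug doses (not always all listed) in √10 steps, by pin tool, on the day after seeding. Nuclei were counted after 5 days, and relative viability is the treated-to-vehicle ratio of nuclei counts. Values are medians of duplicate plates.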

[2] = compound: C[C@@H](N)c1ccc(C(=O)Nc2ccnc3[nH]ccc23)cc1 + CC(C)C[C@H](NC(=O)[C@H](Cc1ccccc1)NC(=O)c1cnccn1)B(O)O [Bortezomib] (partner 0.002 µM)
How it was run: as §1

[3] = compound: C[C@@H](N)c1ccc(C(=O)Nc2ccnc3[nH]ccc23)cc1 + COc1cc2c(Oc3ccc(NC(=O)C4(C(=O)Nc5ccc(F)cc5)CC4)cc3F)ccnc2cc1OCCCN1CCOCC1 [Foretinib] (partner 0.25 µM)
How it was run: as §1

In the case of 201T, the relative viability ([1]; first compound 0.08 µM) is reported as 0.835, the relative viability ([1]; first compound 0.8 µM) is reported as 0.857 and the relative viability ([1]; first compound 2.53 µM) is reported as 0.846. The relative viability ([1]; first compound 8 µM) was 0.866, the relative viability ([2]; first compound 0.04 µM) was 1.09 and the relative viability ([2]; first compound 0.1265 µM) was 1.08. The relative viability ([2]; first compound 0.4 µM) was 1.11, the relative viability ([2]; first compound 1.265 µM) was 1.17 and the relative viability ([2]; first compound 4 µM) was 1.25. The relative viability ([3]; first compound 0.04 µM) was 1.1, the relative viability ([3]; first compound 0.1265 µM) was 1.04 and the relative viability ([3]; first compound 0.4 µM) was 1.25. It also gave a relative viability ([3]; first compound 4 µM) of 1.31.
For NCI-H2009, the relative viability ([1]; first compound 0.08 µM) was 0.374, the relative viability ([1]; first compound 0.8 µM) was 0.4 and the relative viability ([1]; first compound 2.53 µM) was 0.343. It also gave a relative viability ([1]; first compound 8 µM) of 0.37, a relative viability ([2]; first compound 0.04 µM) of 0.89 and a relative viability ([2]; first compound 0.1265 µM) of 0.928. For the same cell line, the relative viability ([2]; first compound 0.4 µM) was 0.969, the relative viability ([2]; first compound 1.265 µM) was 0.354 and the relative viability ([2]; first compound 4 µM) was 0.827. It also gave a relative viability ([3]; first compound 0.04 µM) of 1.2, a relative viability ([3]; first compound 0.1265 µM) of 1.14 and a relative viability ([3]; first compound 0.4 µM) of 1.11. It also gave a relative viability ([3]; first compound 1.265 µM) of 1.02 and a relative viability ([3]; first compound 4 µM) of 0.868.
LU99A was tested, and the relative viability ([1]; first compound 0.08 µM) was 0.857, the relative viability ([1]; first compound 0.8 µM) was 0.982 and the relative viability ([1]; first compound 2.53 µM) was 0.919. The relative viability ([1]; first compound 8 µM) was 0.842, the relative viability ([2]; first compound 0.04 µM) was 0.947 and the relative viability ([2]; first compound 0.1265 µM) was 1.23. It also gave a relative viability ([2]; first compound 0.4 µM) of 1.23, a relative viability ([2]; first compound 1.265 µM) of 0.88 and a relative viability ([2]; first compound 4 µM) of 0.78. It also gave a relative viability ([3]; first compound 0.1265 µM) of 0.875, a relative viability ([3]; first compound 0.4 µM) of 0.714 and a relative viability ([3]; first compound 1.265 µM) of 0.681. It also gave a relative viability ([3]; first compound 4 µM) of 0.621.
NCI-H1437 was tested, and the relative viability ([1]; first compound 0.08 µM) was 0.574, the relative viability ([1]; first compound 0.8 µM) was 0.573 and the relative viability ([1]; first compound 2.53 µM) was 0.624. It also gave a relative viability ([1]; first compound 8 µM) of 0.602, a relative viability ([2]; first compound 0.04 µM) of 0.623 and a relative viability ([2]; first compound 0.1265 µM) of 0.53. The relative viability ([2]; first compound 0.4 µM) was 0.563, the relative viability ([2]; first compound 1.265 µM) was 0.427 and the relative viability ([2]; first compound 4 µM) was 0.555. The relative viability ([3]; first compound 0.04 µM) was 1.29, the relative viability ([3]; first compound 0.1265 µM) was 1.35 and the relative viability ([3]; first compound 0.4 µM) was 1.35. For the same cell line, the relative viability ([3]; first compound 1.265 µM) was 1.37 and the relative viability ([3]; first compound 4 µM) was 1.35.
EKVX showed a relative viability ([1]; first compound 0.08 µM) of 0.291, a relative viability ([1]; first compound 2.53 µM) of 0.318 and a relative viability ([1]; first compound 8 µM) of 0.323. For the same cell line, the relative viability ([2]; first compound 0.04 µM) was 1.08, the relative viability ([2]; first compound 0.1265 µM) was 1 and the relative viability ([2]; first compound 0.4 µM) was 1.39. For the same cell line, the relative viability ([2]; first compound 1.265 µM) was 0.992, the relative viability ([2]; first compound 4 µM) was 0.971 and the relative viability ([3]; first compound 0.04 µM) was 0.84. The relative viability ([3]; first compound 0.1265 µM) was 0.674, the relative viability ([3]; first compound 0.4 µM) was 0.888 and the relative viability ([3]; first compound 1.265 µM) was 0.208. The relative viability ([3]; first compound 4 µM) was 0.727.
Cell Line ABC-1 has a relative viability ([1]; first compound 0.08 µM) of 1.23, a relative viability ([1]; first compound 0.8 µM) of 1.02 and a relative viability ([1]; first compound 2.53 µM) of 1.32. For the same cell line, the relative viability ([1]; first compound 8 µM) was 1.08, the relative viability ([2]; first compound 0.04 µM) was 0.289 and the relative viability ([2]; first compound 0.1265 µM) was 0.308. It also gave a relative viability ([2]; first compound 0.4 µM) of 0.333, a relative viability ([2]; first compound 1.265 µM) of 0.272 and a relative viability ([2]; first compound 4 µM) of 0.319. It also gave a relative viability ([3]; first compound 0.04 µM) of 1.25, a relative viability ([3]; first compound 0.1265 µM) of 1.12 and a relative viability ([3]; first compound 0.4 µM) of 1.34. For the same cell line, the relative viability ([3]; first compound 4 µM) was 0.993.
NCI-H520 was tested, and the relative viability ([1]; first compound 0.08 µM) was 0.445, the relative viability ([1]; first compound 0.8 µM) was 0.519 and the relative viability ([1]; first compound 2.53 µM) was 0.518. It also gave a relative viability ([1]; first compound 8 µM) of 0.498, a relative viability ([2]; first compound 0.04 µM) of 0.756 and a relative viability ([2]; first compound 0.1265 µM) of 0.716. For the same cell line, the relative viability ([2]; first compound 0.4 µM) was 0.628, the relative viability ([2]; first compound 1.265 µM) was 0.638 and the relative viability ([2]; first compound 4 µM) was 0.54. The relative viability ([3]; first compound 0.04 µM) was 0.862, the relative viability ([3]; first compound 0.1265 µM) was 0.707 and the relative viability ([3]; first compound 0.4 µM) was 0.817. The relative viability ([3]; first compound 1.265 µM) was 1.28 and the relative viability ([3]; first compound 4 µM) was 0.95.
Work on LCLC-97TM1 yielded a relative viability ([1]; first compound 0.08 µM) of 0.232, a relative viability ([1]; first compound 0.8 µM) of 0.283 and a relative viability ([1]; first compound 2.53 µM) of 0.214. It also gave a relative viability ([1]; first compound 8 µM) of 0.262, a relative viability ([2]; first compound 0.04 µM) of 0.827 and a relative viability ([2]; first compound 0.1265 µM) of 0.619. The relative viability ([2]; first compound 0.4 µM) was 0.764, the relative viability ([2]; first compound 1.265 µM) was 0.603 and the relative viability ([2]; first compound 4 µM) was 0.375. It also gave a relative viability ([3]; first compound 0.04 µM) of 0.928, a relative viability ([3]; first compound 0.1265 µM) of 0.976 and a relative viability ([3]; first compound 0.4 µM) of 0.99. The relative viability ([3]; first compound 1.265 µM) was 1.06 and the relative viability ([3]; first compound 4 µM) was 0.94.
With NCI-H3122 the relative viability ([1]; first compound 0.08 µM) was 0.421, the relative viability ([1]; first compound 0.8 µM) was 0.453 and the relative viability ([1]; first compound 2.53 µM) was 0.417. The relative viability ([1]; first compound 8 µM) was 0.521, the relative viability ([2]; first compound 0.04 µM) was 1.05 and the relative viability ([2]; first compound 0.1265 µM) was 0.979. It also gave a relative viability ([2]; first compound 0.4 µM) of 1.04, a relative viability ([2]; first compound 1.265 µM) of 1 and a relative viability ([2]; first compound 4 µM) of 0.912. The relative viability ([3]; first compound 0.04 µM) was 0.943, the relative viability ([3]; first compound 0.1265 µM) was 1.03 and the relative viability ([3]; first compound 0.4 µM) was 0.952. The relative viability ([3]; first compound 1.265 µM) was 0.98 and the relative viability ([3]; first compound 4 µM) was 0.897.
In the case of PC-14, the relative viability ([1]; first compound 0.08 µM) is reported as 0.22, the relative viability ([1]; first compound 0.8 µM) is reported as 0.19 and the relative viability ([1]; first compound 2.53 µM) is reported as 0.268. The relative viability ([1]; first compound 8 µM) was 0.265, the relative viability ([2]; first compound 0.04 µM) was 0.832 and the relative viability ([2]; first compound 0.1265 µM) was 0.836. It also gave a relative viability ([2]; first compound 0.4 µM) of 0.874, a relative viability ([2]; first compound 1.265 µM) of 0.923 and a relative viability ([2]; first compound 4 µM) of 0.755. The relative viability ([3]; first compound 0.04 µM) was 0.753, the relative viability ([3]; first compound 0.1265 µM) was 0.943 and the relative viability ([3]; first compound 0.4 µM) was 0.95. For the same cell line, the relative viability ([3]; first compound 1.265 µM) was 0.877 and the relative viability ([3]; first compound 4 µM) was 0.832.
EPLC-272H was tested, and the relative viability ([1]; first compound 0.08 µM) was 0.372, the relative viability ([1]; first compound 0.8 µM) was 0.385 and the relative viability ([1]; first compound 2.53 µM) was 0.389. It also gave a relative viability ([1]; first compound 8 µM) of 0.365, a relative viability ([2]; first compound 0.04 µM) of 1.13 and a relative viability ([2]; first compound 0.1265 µM) of 0.987. It also gave a relative viability ([2]; first compound 0.4 µM) of 1.09, a relative viability ([2]; first compound 4 µM) of 0.977 and a relative viability ([3]; first compound 0.04 µM) of 0.715. For the same cell line, the relative viability ([3]; first compound 0.1265 µM) was 0.747, the relative viability ([3]; first compound 0.4 µM) was 0.797 and the relative viability ([3]; first compound 1.265 µM) was 0.768. The relative viability ([3]; first compound 4 µM) was 0.587.
In the case of A-427, the relative viability ([1]; first compound 0.08 µM) is reported as 0.557, the relative viability ([1]; first compound 0.8 µM) is reported as 0.603 and the relative viability ([1]; first compound 2.53 µM) is reported as 0.578. For the same cell line, the relative viability ([1]; first compound 8 µM) was 0.498, the relative viability ([2]; first compound 0.04 µM) was 0.985 and the relative viability ([2]; first compound 0.1265 µM) was 1.06. It also gave a relative viability ([2]; first compound 0.4 µM) of 0.984, a relative viability ([2]; first compound 4 µM) of 0.764 and a relative viability ([3]; first compound 0.04 µM) of 1.13. For the same cell line, the relative viability ([3]; first compound 0.1265 µM) was 1, the relative viability ([3]; first compound 0.4 µM) was 1.14 and the relative viability ([3]; first compound 4 µM) was 1.07.
